In BindingDB's records for doi:10.1016/j.bmcl.2008.02.009 (Novartis Institutes For Biomedical Research, 2008):

Key:
[1] = target: T1, Isoprenyl transferase (Streptococcus pneumoniae serotype 4 (strain ATCC BAA-334 / TIGR4), UniProt Q97SR4); experiment: Inhibition of Streptococcus pneumoniae UPPS
T1 sequence (Q97SR4 whole entry): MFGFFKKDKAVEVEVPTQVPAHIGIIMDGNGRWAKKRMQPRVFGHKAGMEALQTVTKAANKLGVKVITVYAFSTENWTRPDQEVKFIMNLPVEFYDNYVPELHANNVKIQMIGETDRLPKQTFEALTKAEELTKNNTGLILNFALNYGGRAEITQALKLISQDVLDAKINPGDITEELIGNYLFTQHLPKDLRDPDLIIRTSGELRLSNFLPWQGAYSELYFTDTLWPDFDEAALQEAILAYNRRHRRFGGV

[2] = target: T2, Farnesyl pyrophosphate synthase (Homo sapiens, UniProt P14324); experiment: Inhibition of human FPPS
T2 sequence (P14324 whole entry): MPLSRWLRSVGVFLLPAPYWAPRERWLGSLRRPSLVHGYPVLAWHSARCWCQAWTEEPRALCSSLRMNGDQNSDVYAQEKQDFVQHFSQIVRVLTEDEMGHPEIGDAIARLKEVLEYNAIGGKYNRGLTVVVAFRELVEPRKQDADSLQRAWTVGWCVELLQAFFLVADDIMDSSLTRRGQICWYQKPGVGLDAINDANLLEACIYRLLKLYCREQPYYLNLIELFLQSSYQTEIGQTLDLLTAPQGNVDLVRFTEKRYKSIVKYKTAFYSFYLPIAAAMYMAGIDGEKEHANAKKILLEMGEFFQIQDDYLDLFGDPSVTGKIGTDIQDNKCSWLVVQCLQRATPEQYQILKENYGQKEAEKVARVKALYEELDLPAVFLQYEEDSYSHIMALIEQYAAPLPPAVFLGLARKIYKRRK

IC50 [1] [nM]	IC50 [2] [nM]	Compound
1100	–	O=C1CC(Cc2ccccc2)NC(=O)C1C(=O)Nc1ccc(Nc2ccccc2)cc1 (stereo unspecified)
110	> 50000	O=C1CC(Cc2ccccc2)NC(=O)C1C(=O)Nc1ccc(N2CCCCC2)cc1 (stereo unspecified)
110	> 50000	O=C1CC(Cc2ccccc2)NC(=O)C1C(=O)Nc1ccc(Oc2ccccc2)cc1 (stereo unspecified)
1100	–	O=C(Nc1ccc(-c2ccccc2)cc1)C1C(=O)OC(Cc2ccccc2)C1=O (stereo unspecified)
